For 29 compounds, Ki results are on record in patent US9676784B2, “Fused imidazolyl derivatives, their preparation and use as medicaments” (LABORATORIOS DEL DR. ESTEVE S.A., priority 2013, dated 2017).

Molecules are shown by their SMILES. Counter-ions that a name gives are not always drawn.

Sequence of σ1-receptor (Q60492 whole entry): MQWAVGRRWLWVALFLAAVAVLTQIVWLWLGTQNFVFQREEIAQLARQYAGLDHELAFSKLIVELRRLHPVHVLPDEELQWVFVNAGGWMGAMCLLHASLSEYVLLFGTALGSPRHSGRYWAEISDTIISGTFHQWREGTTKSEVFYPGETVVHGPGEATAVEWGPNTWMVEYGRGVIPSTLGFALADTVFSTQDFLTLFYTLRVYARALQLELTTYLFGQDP

The test concerns the target σ1-receptor (Cavia porcellus, UniProt Q60492). In words: Binding assay for the σ1-receptor, [3H]-(+)-pentazocine, guinea pig brain membranes.
Method: Guinea pig brains were homogenized in 10 vols. (w/v) of Tris-HCl 50 mM 0.32 M sucrose, pH 7.4, with a Kinematica Polytron PT 3000 at 15000 r.p.m. for 30 s. The homogenate was centrifuged at 1000 g for 10 min at 4° C. and the supernatants collected and centrifuged again at 48000 g for 15 min at 4° C. The pellet was resuspended in 10 volumes of Tris-HCl buffer (50 mM, pH 7.4), incubated at 37° C. for 30 min, and centrifuged at 48000 g for 20 min at 4° C. Following this, the pellet was re-suspended in fresh Tris-HCl buffer (50 mM, pH 7.4) and stored on ice until use.
The radioligand used was [^3H]-(+)-pentazocine at 5.0 nM and the final volume was 200 μl. The incubation was initiated with the addition of 100 μl of membrane at a final tissue concentration of approximately 5 mg tissue net weight/mL and the incubation time was 150 m. at 37° C. After incubation, the membranes were collected onto pretreated glass fiber filterplate (MultiScreen-FC, Millipore), with polyethylenimine 0.1%. […] Nonspecific binding was determined with 1 μM haloperidol.
What is called Ki is a measure of affinity in units of concentration, obtained from inhibition or displacement. The compound `COc1cccc(Nc2ncc3n2CCCN(CC2CCOCC2)C3)c1` [Example 15, N-(3-methoxyphenyl)-8-((tetrahydro-2H-pyran-4-yl)methyl)-6,7,8,9-tetrahydro-5H-imidazo[1,5-a][1,4]diazepin-3-amine] yielded an inhibition constant (Ki) of 266 nM.
In turn, `Fc1cc(F)cc(Nc2ncc3n2CCCN(CC2CCOCC2)C3)c1` [Example 18, N-(3,5-difluorophenyl)-8-((tetrahydro-2H-pyran-4-yl)methyl)-6,7,8,9-tetrahydro-5H-imidazo[1,5-a][1,4]diazepin-3-amine] gave an inhibition constant Ki of 26 nM.
In turn, `Fc1ccc(Cc2ncc3n2CCN(CC2CCCCC2)C3)cc1` [Example 30, 7-(cyclohexylmethyl)-3-(4-fluorobenzyl)-5,6,7,8-tetrahydroimidazo[1,5-a]pyrazine hydrochloride] had an inhibition constant Ki of 22 nM.
As for `c1ccc(Nc2ncc3n2CCN(CC2CCOCC2)C3)cc1` [Example 12, N-phenyl-7-((tetrahydro-2H-pyran-4-yl)methyl)-5,6,7,8-tetrahydroimidazo[1,5-a]pyrazin-3-amine], the Ki amounted to 258 nM.
In turn, `Fc1ccc(Nc2ncc3n2CCN(Cc2ccccc2)C3)cc1` [Example 21, 7-benzyl-N-(4-fluorophenyl)-5,6,7,8-tetrahydroimidazo[1,5-a]pyrazin-3-amine] showed a Ki of 44 nM.
In turn, `COc1ccc(CN2CCn3c(cnc3Nc3ccc(F)cc3)C2)cn1` [Example 39, N-(4-fluorophenyl)-7-((6-methoxypyridin-3-yl)methyl)-5,6,7,8-tetrahydroimidazo[1,5-a]pyrazin-3-amine] had a Ki of 373 nM.
In the case of `Fc1c(Cl)cccc1Nc1ncc2n1CCCN(CC1CCOCC1)C2` [Example 17, N-(3-chloro-2-fluorophenyl)-8-((tetrahydro-2H-pyran-4-yl)methyl)-6,7,8,9-tetrahydro-5H-imidazo[1,5-a][1,4]diazepin-3-amine], the Ki was 14 nM.
For `c1ccc(Nc2ncc3n2CCN(CC2CCCCC2)C3)cc1` [Example 5, 7-(Cyclohexylmethyl)-N-phenyl-5,6,7,8-tetrahydroimidazo[1,5-a]pyrazin-3-amine], the Ki came to 8.2 nM.
As for `c1ccc(CCN2CCn3c(cnc3Nc3ccccc3)C2)cc1` [Example 31, 7-Phenethyl-N-phenyl-5,6,7,8-tetrahydroimidazo[1,5-a]pyrazin-3-amine], the figure is 101 nM; as for `Fc1ccc(Nc2ncc3n2CCN(CC2CCC(F)(F)CC2)C3)cc1` [Example 36, 7-((4,4-difluorocyclohexyl)methyl)-N-(4-fluorophenyl)-5,6,7,8-tetrahydroimidazo[1,5-a]pyrazin-3-amine], 21 nM.
Regarding `CCNC(=O)Nc1ncc2n1CCCN(CC1CCCCC1)C2` [Example 1, 1-(8-(Cyclohexylmethyl)-6,7,8,9-tetrahydro-5H-imidazo[1,5-a][1,4]diazepin-3-yl)-3-ethylurea], the Ki was determined as 179 nM.
As for `Fc1ccc(Nc2ncc3n2CCN(CC2CCCCC2)C3)cc1` [Example 8, 7-(cyclohexylmethyl)-N-(4-fluorophenyl)-5,6,7,8-tetrahydroimidazo[1,5-a]pyrazin-3-amine], the figure is 8 nM.
In the case of `CCCNC(=O)Nc1ncc2n1CCN(CC1CCCCC1)C2` [Example 3, 1-(7-(Cyclohexylmethyl)-5,6,7,8-tetrahydroimidazo[1,5-a]pyrazin-3-yl)-3-propylurea] it was 71 nM; in that of `Fc1ccc(Nc2ncc3n2CCN(C2CCCCC2)C3)cc1` [Example 40, 7-cyclohexyl-N-(4-fluorophenyl)-5,6,7,8-tetrahydroimidazo[1,5-a]pyrazin-3-amine], 68 nM.
In the case of `Oc1cccc(Nc2ncc3n2CCN(Cc2ccccc2)C3)c1` [Example 19, 3-(7-benzyl-5,6,7,8-tetrahydroimidazo[1,5-a]pyrazin-3-ylamino)phenol] it was 63 nM; in that of `CCC(=O)N(c1cccc(O)c1)c1ncc2n1CCN(CCc1ccccc1)C2` [Example 25, N-(3-hydroxyphenyl)-N-(7-phenethyl-5,6,7,8-tetrahydroimidazo[1,5-a]pyrazin-3-yl)propionamide], 358 nM; in that of `Fc1cc(F)cc(Nc2ncc3n2CCN(CC2CCCCC2)C3)c1` [Example 6, 7-(cyclohexylmethyl)-N-(3,5-difluorophenyl)-5,6,7,8-tetrahydroimidazo[1,5-a]pyrazin-3-amine], 12 nM.
The compound `Fc1ccc(Nc2ncc3n2CCN(Cc2ccc(F)nc2)C3)cc1` [Example 38, N-(4-fluorophenyl)-7-((6-fluoropyridin-3-yl)methyl)-5,6,7,8-tetrahydroimidazo[1,5-a]pyrazin-3-amine] gave a Ki of 311 nM.
`Fc1c(Cl)cccc1Nc1ncc2n1CCN(Cc1ccccc1)C2` [Example 9, 7-benzyl-N-(3-chloro-2-fluorophenyl)-5,6,7,8-tetrahydroimidazo[1,5-a]pyrazin-3-amine]: the inhibition constant Ki turned out to be 232 nM.
`Fc1ccc(Nc2ncc3n2CCN(Cc2ccc(F)cc2F)C3)cc1` [Example 35, 7-(2,4-difluorobenzyl)-N-(4-fluorophenyl)-5,6,7,8-tetrahydroimidazo[1,5-a]pyrazin-3-amine] registered a Ki of 37 nM.
As to `Fc1ccc(CN2CCn3c(cnc3Nc3ccc(F)cn3)C2)cc1` [Example 20, 7-(4-fluorobenzyl)-N-(5-fluoropyridin-2-yl)-5,6,7,8-tetrahydroimidazo[1,5-a]pyrazin-3-amine], the inhibition constant Ki was determined as 67 nM.
In the case of `CCC(=O)N(c1cccc(O)c1)c1ncc2n1CCN(Cc1ccccc1)C2` [Example 24, N-(7-benzyl-5,6,7,8-tetrahydroimidazo[1,5-a]pyrazin-3-yl)-N-(3-hydroxyphenyl)propionamide] it was 124 nM; in that of `Fc1ccc(Nc2ncc3n2CCCN(CC2CCOCC2)C3)cc1` [Example 16, N-(4-fluorophenyl)-8-((tetrahydro-2H-pyran-4-yl)methyl)-6,7,8,9-tetrahydro-5H-imidazo[1,5-a][1,4]diazepin-3-amine], 175 nM; in that of `c1ccc(Cc2ncc3n2CCN(CC2CCCCC2)C3)cc1` [Example 28, 3-Benzyl-7-(cyclohexylmethyl)-5,6,7,8-tetrahydroimidazo[1,5-a]pyrazine trifluoroacetate], 39 nM.
Consider `Oc1cccc(Nc2ncc3n2CCN(CCc2ccccc2)C3)c1` [Example 34, 3-(7-phenethyl-5,6,7,8-tetrahydroimidazo[1,5-a]pyrazin-3-ylamino)phenol], for which the Ki worked out at 168 nM.
Turning to `COc1cccc(Nc2ncc3n2CCN(CC2CCCCC2)C3)c1` [Example 7, 7-(cyclohexylmethyl)-N-(3-methoxyphenyl)-5,6,7,8-tetrahydroimidazo[1,5-a]pyrazin-3-amine], the Ki stood at 13 nM.
As for `CCNC(=O)Nc1ncc2n1CCN(CC1CCCCC1)C2` [Example 2, 1-(7-(Cyclohexylmethyl)-5,6,7,8-tetrahydroimidazo[1,5-a]pyrazin-3-yl)-3-ethylurea], affinity was put at a Ki of 106 nM.
With `Fc1ccc(Nc2ncc3n2CCN(Cc2ccc(F)cn2)C3)cc1` [Example 37, N-(4-fluorophenyl)-7-((5-fluoropyridin-2-yl)methyl)-5,6,7,8-tetrahydroimidazo[1,5-a]pyrazin-3-amine], the inhibitory constant (Ki) worked out at 293 nM.
In turn, `c1ccc(CNc2ncc3n2CCN(CC2CCCCC2)C3)cc1` [Example 27, N-Benzyl-7-(cyclohexylmethyl)-5,6,7,8-tetrahydroimidazo[1,5-a]pyrazin-3-amine] displayed an inhibition constant (Ki) of 38 nM.
